# Assay results taken from ChEMBL document CHEMBL4673238, “Discovery of 3-(benzofuran-2-ylmethyl)-1H-indole derivatives as potential autophagy inducers in cervical cancer cells” (Bioorg Med Chem Lett, 2020).
# Active and inactive are the calls of the source. The rule behind the calls is not given here.
# What was measured:
# Assay type in all cases: functional, cell-based
# SiHa [1] = test: Cytotoxicity against human SiHa cells
# C-33-A [2] = test: Cytotoxicity against human C-33-A cells
# SiHa [3] = test: Induction of autophagy in human SiHa cells assessed as […] in GFP-LC3 level by fluorescence microscopy
# SiHa [4] = test: Induction of autophagy in human SiHa cells assessed as increase in LC3I to LC3II conversion at 30 uM measured upto 42 hrs by microscopic analysis; conditions: time hrs <=42
# C-33-A [5] = test: Induction of autophagy in human C-33-A cells assessed as decrease in p62 expression at 30 uM incubated for 42 hrs by microscopic analysis
# SiHa [6] = test: Induction of autophagy in human SiHa cells assessed as decrease in p62 expression at 30 uM measured upto 42 hrs by microscopic analysis; conditions: time hrs <=42
# C-33-A [7] = test: Induction of autophagy in human C-33-A cells assessed as increase in LC3I to LC3II conversion at 30 uM incubated for 42 hrs by microscopic analysis
# SiHa [8] = test: Induction of autophagy in human SiHa cells assessed as vacuole formation incubated for 24 hrs by microscopic analysis
SMILES,IC50 (SiHa [1]) [µM],further results
Cc1[nH]c2ccccc2c1C(c1ccccc1)c1cc2cc(C(C)(C)C)cc(C(C)(C)C)c2o1 (stereo not given),72,–
Cc1c(C(c2ccccc2)c2cc3cc(Cl)ccc3o2)[nH]c2ccccc12 (stereo not given),77.9,–
O=[N+]([O-])c1ccc2[nH]cc(C(c3ccccc3)c3cc4cc(Cl)ccc4o3)c2c1 (stereo not given),> 100,–
Clc1ccc2oc(C(c3ccccc3)c3c[nH]c4ccccc34)cc2c1 (stereo not given),58,–
COc1ccc2oc(C(c3ccccc3)c3[nH]c4ccccc4c3C)cc2c1 (stereo not given),> 100,–
COc1ccc(C(c2cc3ccccc3o2)c2c(C)[nH]c3ccccc23)cc1 (stereo not given),> 100,–
COc1ccc(C(c2cc3ccccc3o2)c2c[nH]c3ccccc23)cc1 (stereo not given),> 100,–
O=[N+]([O-])c1ccc2[nH]cc(C(c3ccccc3)c3cc4ccccc4o3)c2c1 (stereo not given),40.4,IC50 (C-33-A [2]): 35.2 µM
CC(C)(C)c1cc(C(C)(C)C)c2oc(C(c3ccccc3)c3c[nH]c4ccccc34)cc2c1 (stereo not given),61.6,–
CC(C)(C)c1cc(C(C)(C)C)c2oc(C(c3ccc(Cl)cc3)c3c[nH]c4ccccc34)cc2c1 (stereo not given),49.8,IC50 (C-33-A [2]): 34.2 µM
COc1ccc(C(c2cc3cc(C(C)(C)C)cc(C(C)(C)C)c3o2)c2c[nH]c3ccc([N+](=O)[O-])cc23)cc1 (stereo not given),> 100,–
Cc1c(C(c2ccccc2)c2cc3ccccc3o2)[nH]c2ccccc12 (stereo not given),> 100,–
CC(C)(C)c1cc(C(C)(C)C)c2oc(C(c3ccc(Cl)cc3)c3c[nH]c4ccc([N+](=O)[O-])cc34)cc2c1 (stereo not given),36.9,Activity (SiHa [3]): Active; Activity (SiHa [4]): Active; Activity (C-33-A [5]): Active; Activity (SiHa [6]): Active; IC50 (C-33-A [2]): 29.4 µM; Activity (C-33-A [7]): Active; Activity (SiHa [8]): Active
CC(C)(C)c1cc(C(C)(C)C)c2oc(C(c3ccccc3)c3c[nH]c4ccc([N+](=O)[O-])cc34)cc2c1 (stereo not given),48.2,–
Cc1[nH]c2ccccc2c1C(c1ccccc1)c1cc2cc(Cl)ccc2o1 (stereo not given),47.5,IC50 (C-33-A [2]): 38.7 µM
Cc1c(C(c2ccccc2)c2cc3cc(C(C)(C)C)cc(C(C)(C)C)c3o2)[nH]c2ccccc12 (stereo not given),> 100,–
COc1ccc(C(c2cc3ccccc3o2)c2[nH]c3ccccc3c2C)cc1 (stereo not given),> 100,–
COc1ccc2oc(C(c3ccccc3)c3c[nH]c4ccccc34)cc2c1 (stereo not given),> 100,–
c1ccc(C(c2cc3ccccc3o2)c2c[nH]c3ccccc23)cc1 (stereo not given),71.1,–
Cc1c(C(c2ccc(Cl)cc2)c2cc3ccccc3o2)[nH]c2ccccc12 (stereo not given),72.5,–
Cc1[nH]c2ccccc2c1C(c1ccccc1)c1cc2ccccc2o1 (stereo not given),56.5,–
Cc1[nH]c2ccccc2c1C(c1ccc(Cl)cc1)c1cc2cc(C(C)(C)C)cc(C(C)(C)C)c2o1 (stereo not given),35.9,Activity (SiHa [3]): Active; Activity (SiHa [4]): Active; Activity (C-33-A [5]): Active; Activity (SiHa [6]): Active; IC50 (C-33-A [2]): 31.2 µM; Activity (C-33-A [7]): Active; Activity (SiHa [8]): Active
COc1ccc2oc(C(c3ccccc3)c3c(C)[nH]c4ccccc34)cc2c1 (stereo not given),> 100,–
